Assays:
Type in all cases: cell-based
[1] = tested on: HeLa cells; test: Necrosis assay; settings: Homo sapiens, HeLa, 0.5 h, read-out: HeLa necrosis EC50 range
Summary of the method: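 HeLa cells treated with compound at 10 μM to 400 μM (final) for 30 min at 37° C., viability then measured by PrestoBlue fluorescence (ex 535/em 630 nm). Normalized to 1% DMSO and 400 μM ingenol mebutate controls; AbsEC50 from four-parameter sigmoidal fit.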

[2] = tested on: Primary human epidermal keratinocytes, HeKa; test: HeKa cytokine release (IL-8); settings: Homo sapiens, HEKa, 6 h, read-out: HeKa cytokine release (IL-8) Rel EC50 range
Summary of the method: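 Seeded cells exposed to compound dilutions for 6 h at 37° C; IL-8 in supernatant quantified by MSD sandwich electrochemiluminescence immunoassay. Effects normalized to positive control (1.5×10^−7 M PEP0005), four-parameter sigmoidal fit; Rel EC50 is concentration midway between fitted top and bottom.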

[3] = tested on: PMN's (polymorphonuclear leukocytes); test: Neutrophil oxidative burst; settings: Leukocyte, 40 min, read-out: Neutrophil oxidative burst Rel EC50 range, PMN from buffy coats, 40 min at RT, hydroethidine fluorescence; normalized to 5×10^−7 M PEP0005
Summary of the method: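 Human buffy-coat neutrophils (2.5×10^5/well) in HBSS with 0.1% BSA, 5 mM glucose treated with compound premixed with 10 μM hydroethidine for 40 min at RT; fluorescence read at 485/579 nm. Normalized to 5×10^−7 M PEP0005; Rel EC50 is midway between fitted top and bottom, Abs EC50 gives 50% of PEP0005 maximum.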

SMILES | EC50 [1] | EC50 [2] | EC50 [3]
CC1=C[C@]23C(=O)[C@@H](C=C(CO)[C@@H](O)[C@]2(O)[C@H]1OC(=O)c1c(C)nn(C(C)C)c1C)[C@H]1[C@@H](C[C@H]3C)C1(C)C [Compound 546, Ingenol 3-(1-isopropyl-3,5-dimethyl-pyrazole-4-carboxylate)] | 150000 to 350000 nM | < 20 nM | < 20 nM
CCc1onc(C(C)C)c1C(=O)O[C@H]1C(C)=C[C@]23C(=O)[C@@H](C=C(CO)[C@@H](O)[C@]12O)[C@H]1[C@@H](C[C@H]3C)C1(C)C [Compound 547, Ingenol 3-(5-ethyl-3-isopropyl-isoxazole-4-carboxylate)] | < 150000 nM | < 20 nM | 20 to 100 nM
CC1=C[C@]23C(=O)[C@@H](C=C(CO)[C@@H](O)[C@]2(O)[C@H]1OC(=O)c1c2ccccc2nn1C)[C@H]1[C@@H](C[C@H]3C)C1(C)C [Compound 548, Ingenol 3-(2-methylindazole-3-carboxylate)] | 150000 to 350000 nM | < 20 nM | 20 to 100 nM
CC1=C[C@]23C(=O)[C@@H](C=C(CO)[C@@H](O)[C@]2(O)[C@H]1OC(=O)C1=C(C)C(=O)OC12CCCCC2)[C@H]1[C@@H](C[C@H]3C)C1(C)C [Compound 550, Ingenol 3-(2-methyl-3-oxo-4-oxaspiro[4.5]dec-1-ene-1-carboxylate)] | < 150000 nM | < 20 nM | < 20 nM
CC1=C[C@]23C(=O)[C@@H](C=C(CO)[C@@H](O)[C@]2(O)[C@H]1OC(=O)c1c(C)nsc1C)[C@H]1[C@@H](C[C@H]3C)C1(C)C [Compound 552, Ingenol 3-(3,5-dimethylisothiazole-4-carboxylate)] | 150000 to 350000 nM | 20 to 100 nM | 20 to 100 nM
CC1=C[C@]23C(=O)[C@@H](C=C(CO)[C@@H](O)[C@]2(O)[C@H]1OC(=O)c1c(C)nsc1I)[C@H]1[C@@H](C[C@H]3C)C1(C)C [Compound 553, Ingenol 3-(5-iodo-3-methyl-isothiazole-4-carboxylate)] | 150000 to 350000 nM | < 20 nM | < 20 nM
COc1ccc(-c2cnn(C)c2C(=O)O[C@H]2C(C)=C[C@]34C(=O)[C@@H](C=C(CO)[C@@H](O)[C@]23O)[C@H]2[C@@H](C[C@H]4C)C2(C)C)cc1 [Compound 554, Ingenol 3-(4-(4-methoxyphenyl)-2-methyl-pyrazole-3-carboxylate)] | < 150000 nM | < 20 nM | < 20 nM
CC1=C[C@]23C(=O)[C@@H](C=C(CO)[C@@H](O)[C@]2(O)[C@H]1OC(=O)c1c(-c2ccccc2C)cnn1C)[C@H]1[C@@H](C[C@H]3C)C1(C)C [Compound 555, Ingenol 3-(4-(2-methylphenyl)-2-methyl-pyrazole-3-carboxylate)] | < 150000 nM | < 20 nM | < 20 nM
CC1=C[C@]23C(=O)[C@@H](C=C(CO)[C@@H](O)[C@]2(O)[C@H]1OC(=O)c1c(-c2ccc(S(C)(=O)=O)cc2)cnn1C)[C@H]1[C@@H](C[C@H]3C)C1(C)C [Compound 556, Ingenol 3-(2-methyl-4-(4-methylsulfonylphenyl)pyrazole-3-carboxylate)] | 150000 to 350000 nM | 20 to 100 nM | 20 to 100 nM
CC1=C[C@]23C(=O)[C@@H](C=C(CO)[C@@H](O)[C@]2(O)[C@H]1OC(=O)c1c(-c2ccccc2)cnn1C)[C@H]1[C@@H](C[C@H]3C)C1(C)C [Compound 557, Ingenol 3-(2-methyl-4-phenyl-pyrazole-3-carboxylate)] | < 150000 nM | < 20 nM | < 20 nM
CC1=C[C@]23C(=O)[C@@H](C=C(CO)[C@@H](O)[C@]2(O)[C@H]1OC(=O)c1c(C)nn(-c2ccccc2)c1C)[C@H]1[C@@H](C[C@H]3C)C1(C)C [Compound 558, Ingenol 3-(3,5-dimethyl-1-phenyl-pyrazole-4-carboxylate)] | < 150000 nM | < 20 nM | < 20 nM

From US9708286B2, “Ingenol-3-acylates III and ingenol-3-carbamates” (LEO Laboratories Limited, priority 2010, dated 2017)
